Source: patent publication US20040235939A1, “Synthesis of peloruside a and analogs thereof for use as antitumor agents” (priority 2003, published 2004)

What was measured:
NCI-H2887 = assay: SRB cytotoxicity assay, NCI-H2887; type: cell-based, human
Procedure: (§1) Cells were treated on Days 1, 3, 5, and 7 with 5 μL of media, vehicle, or drug. Peloruside A was resuspended in 0.1% DMSO and added to wells to a final concentration of 0.01, 0.1, 1, 10 or 100 nM. Taxol® (Sigma-Aldrich) was resuspended in 0.1% ethanol and added to cells to a final concentration of 0.1, 1, 10, 100, or 1000 nM.
(§2) The amount of surviving cells was measured using the sulforhodamine B (SRB) assay as previously described (Skehan et al., New colorimetric cytotoxicity assay for anticancer-drug screening. J. Natl. Cancer Inst., 1990. 82(13): p. 1107-12). Cells were fixed on Days 5, 7, and 9 (representing 4, 6, and 8 days of exposure to drug or control, respectively) with 50% (w/v) trichloroacetic acid for 1 hour at 4° C., rinsed thoroughly with water, and dried overnight. The dried cells were stained with 4% sulforhodamine B in 1% acetic acid, rinsed thoroughly and dried overnight. The bound dye was resuspended in 10 mM Tris and the absorbance was read at 492 nm. Percent growth inhibition (GI) was calculated as follows: %GI=(1−(absorbance sample/absorbance vehicle))×100. The absorbance value for each drug concentration and control represents the average of 6 replicates. The %GI was plotted against the log[drug] to generate the growth curves. The concentration of drug required to inhibit growth by 50% (GI50) was calculated for each time point.

Mia PaCa-2 = assay: SRB cytotoxicity assay, Mia PaCa-2; type: cell-based; settings: Homo sapiens
Procedure: as §1, §2

[1] = system: BSC-1 (Monkey Kidney epithelial) cells; assay: Immunofluorescent staining of tubulin in BSC-1 cells; type: cell-based; settings: 200 nM of Taxol® or 50 nM of Peloruside A
BT-549 = assay: SRB cytotoxicity assay, BT-549; type: cell-based; settings: Homo sapiens
Procedure: as §1, §2

MDA-MB-231 = assay: SRB cytotoxicity assay, MDA-MB-231; type: cell-based; settings: Homo sapiens
Procedure: as §1, §2

SK-MEL-5 = assay: SRB cytotoxicity assay, SK-MEL-5; type: cell-based; settings: Homo sapiens
Procedure: as §1, §2

NCI-H23 = assay: SRB cytotoxicity assay, NCI-H23; type: cell-based; settings: Homo sapiens
Procedure: as §1, §2

A498 = assay: SRB cytotoxicity assay, A498; type: cell-based; settings: Homo sapiens
Procedure: as §1, §2

SK-HEP-1 = assay: SRB cytotoxicity assay, SK-HEP-1; type: cell-based; settings: Homo sapiens
Procedure: as §1, §2

PC-3 = assay: SRB cytotoxicity assay, PC-3; type: cell-based; settings: Homo sapiens
Procedure: as §1, §2

NCI-H1395 = assay: SRB cytotoxicity assay, NCI-H1395; type: cell-based, human; settings: Homo sapiens
Procedure: as §1, §2

CAKI-1 = assay: SRB cytotoxicity assay, CAKI-1; type: cell-based; settings: Homo sapiens
Procedure: as §1, §2

Capan-1 = assay: SRB cytotoxicity assay, Capan-1; type: cell-based; settings: Homo sapiens
Procedure: as §1, §2

SK-OV-3 = assay: SRB cytotoxicity assay, SK-OV-3; type: cell-based; settings: Homo sapiens
Procedure: as §1, §2

LoVo = assay: SRB cytotoxicity assay, LoVo; type: cell-based; settings: Homo sapiens
Procedure: as §1, §2

HCT-116 = assay: SRB cytotoxicity assay, HCT-116; type: cell-based; settings: Homo sapiens
Procedure: as §1, §2

ptx10 cells = assay: Cell Titer-Glo cell viability, Taxol-resistant ptx10 cells; settings: Homo sapiens, PTX10, 48 h, read-out: cell viability
Procedure: (§3) These cell lines have specific amino acid mutations in tubulin that prevent Taxol®-binding. […] Synthetic (+)-Peloruside A was used for the present example.
(§4) 1A9, ptx10 and ptx22 cells were plated in 96-well plates to approximately 50% confluency. On the next day, Taxol® or Peloruside A was added to each well and incubated for 48 hours. A final concentration of 1, 2, 3, 4, 5, 8, 10, 20, 30, 50, 100, 300, 500, or 1000 nM of Taxol® was used. A final concentration of 10, 20, 30, 40, 50 or 70 nM of Peloruside A was used. Cell viability was measured using the Cell Titer-Glo Luminescent Cell Viability Assay (Promega). FIGS. 80-82 show bar graphs of cell viability at various concentrations of Peloruside A and Taxol®.

Hep-G2 = assay: SRB cytotoxicity assay, Hep-G2; type: cell-based; settings: Homo sapiens
Procedure: as §1, §2

ptx22 cells = assay: Cell Titer-Glo cell viability, Taxol-resistant ptx22 cells; settings: Homo sapiens, 48 h, read-out: cell viability
Procedure: as §3, §4

SK-MEL-28 = assay: SRB cytotoxicity assay, SK-MEL-28; type: cell-based; settings: Homo sapiens
Procedure: as §1, §2

HCT-15 = assay: SRB cytotoxicity assay, HCT-15; type: cell-based; settings: Homo sapiens
Procedure: as §1, §2

Compound: CC[C@H](/C=C(/C)C1C[C@@H](OC)CC(O)C(C)(C)C2(O)OC(C[C@@H](OC)C2O)C[C@@H](OC)[C@H](O)C(=O)O1)CO (single isomer, unassigned; (+)) [Peloruside A, (+)-Peloruside A]
- GI50 (NCI-H2887; Homo sapiens, NCI-H2887, 144 h): 674 nM
- GI50 (NCI-H2887; Homo sapiens, NCI-H2887, 192 h): 9.15 nM
- GI50 (NCI-H2887; NCl-H2887, Lung, 4 Days): 4 Days: Resistant
- GI50 (Mia PaCa-2; MIA PaCa-2, 96 h): 9.65 nM
- GI50 (Mia PaCa-2; MIA PaCa-2, 144 h): 1.76 nM
- GI50 (Mia PaCa-2; MIA PaCa-2, 192 h): 2.44 nM
- formation of a bipolar spindle [1]: inhibits the formation of a bipolar spindle
- GI50 (BT-549; BT-549, 96 h): 38.8 nM
- GI50 (BT-549; BT-549, 144 h): 4.28 nM
- GI50 (BT-549; BT-549, 192 h): 5.73 nM
- GI50 (MDA-MB-231; MDA-MB-231, 96 h): 4.02 nM
- GI50 (MDA-MB-231; MDA-MB-231, 144 h): 3.4 nM
- GI50 (MDA-MB-231; MDA-MB-231, 192 h): 1.53 nM
- GI50 (SK-MEL-5; SK-MEL-5, 96 h): 9.42 nM
- GI50 (SK-MEL-5; SK-MEL-5, 144 h): 1.76 nM
- GI50 (SK-MEL-5; SK-MEL-5, 192 h): 2.44 nM
- GI50 (NCI-H23; NCI-H23, 144 h): 7.11 nM
- GI50 (NCI-H23; NCI-H23, 192 h): 4.78 nM
- GI50 (A498; A498, 96 h): 7.3 nM
- GI50 (A498; A498, 144 h): 1.9 nM
- GI50 (A498; A498, 192 h): 2.75 nM
- GI50 (SK-HEP-1; SK-HEP1, 96 h): 39.3 nM
- GI50 (SK-HEP-1; SK-HEP1, 144 h): 11.2 nM
- GI50 (SK-HEP-1; SK-HEP1, 192 h): 1.45 nM
- GI50 (PC-3; PC-3, 96 h): 11.6 nM
- GI50 (PC-3; PC-3, 144 h): 6.5 nM
- GI50 (PC-3; PC-3, 192 h): 2.46 nM
- GI50 (NCI-H1395; NCI-H1395, 96 h): 1010 nM
- GI50 (NCI-H1395; NCI-H1395, 144 h): 84.1 nM
- GI50 (NCI-H1395; NCI-H1395, 192 h): 15.2 nM
- GI50 (CAKI-1; CAKI-1, 96 h): 12.5 nM
- GI50 (CAKI-1; CAKI-1, 144 h): 3.97 nM
- GI50 (CAKI-1; CAKI-1, 192 h): 3 nM
- GI50 (Capan-1; CAPAN-1, 96 h): 29.8 nM
- GI50 (Capan-1; CAPAN-1, 144 h): 6.8 nM
- GI50 (Capan-1; CAPAN-1, 192 h): 5.21 nM
- GI50 (SK-OV-3; SK-OV-3, 96 h): 8.81 nM
- GI50 (SK-OV-3; SK-OV-3, 144 h): 8.51 nM
- GI50 (SK-OV-3; SK-OV-3, 192 h): 5.77 nM
- GI50 (LoVo; 96 h): 11.8 nM
- GI50 (LoVo; 144 h): 7.34 nM
- GI50 (LoVo; 192 h): 6.14 nM
- GI50 (HCT-116; HCT-116, 96 h): 3.64 nM
- GI50 (HCT-116; HCT-116, 144 h): 5.81 nM
- GI50 (HCT-116; HCT-116, 192 h): 1.79 nM
- viability at 0.03 µM (ptx10 cells): ~50%
- GI50 (Hep-G2; HepG2, 96 h): 18 nM
- GI50 (Hep-G2; HepG2, 144 h): 1.58 nM
- GI50 (Hep-G2; HepG2, 192 h): 0.98 nM
- viability at 0.03 µM (ptx22 cells): ~50%
- GI50 (SK-MEL-28; SK-MEL-28, 96 h): 23.3 nM
- GI50 (SK-MEL-28; SK-MEL-28, 144 h): 7.29 nM
- GI50 (SK-MEL-28; SK-MEL-28, 192 h): 2.07 nM
- GI50 (HCT-15; HCT-15, 96 h): 14.3 nM
- GI50 (HCT-15; HCT-15, 144 h): 9.23 nM
- GI50 (HCT-15; HCT-15, 192 h): 11.7 nM
